What was measured:
[1] = tested on: NCI-H358 cells (K-Ras G12C); test: Potency assay: pERK in NCI-H358 cells; type: cell-based, human; details: Homo sapiens, NCI-H358; H358 KRAS G12C; read-out: pERK EC50
Outline: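 Inhibition of cellular pERK after a 4 h treatment, detected by AlphaLISA or In-Cell Western. IC50 from a four-parameter concentration-response fit.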

NCI-H358 (K-Ras G12C) = test: CellTiter-Glo cell viability assay, NCI-H358; type: cell-based, human; details: Homo sapiens, NCI-H358, 120 h, NCI-H358, 5-day treatment; class symbols; read-out: Additional H358 Cell Viability assay data (K-Ras G12C, IC50)
Outline: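 Steps: compound dispensed into wells holding cells; incubation to day 5; ~30 min room-temperature equilibration; luminescence read; sample signal divided by mean DMSO signal, times 100; four-parameter logistic curve fit.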

K-Ras G12C = K-Ras G12C (Homo sapiens (Human), UniProt P01116+P62937, G12C); test: Ras-Raf (BRAF RBD) disruption / FRET / MOA assay, KRAS G12C; type: biochemical; details: KRAS G12C; Ras-Raf disruption/FRET/MOA assay; read-out: IC50* KRAS G12C FRET data
K-Ras G12C, sequence (P01116-2 other isoform, or with tags, fused parts or gaps G12C): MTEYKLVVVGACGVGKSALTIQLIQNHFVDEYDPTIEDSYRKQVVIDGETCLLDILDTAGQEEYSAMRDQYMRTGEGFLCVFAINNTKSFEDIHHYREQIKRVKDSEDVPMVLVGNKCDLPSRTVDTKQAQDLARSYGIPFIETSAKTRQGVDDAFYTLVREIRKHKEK
K-Ras G12C, sequence (P62937 whole entry): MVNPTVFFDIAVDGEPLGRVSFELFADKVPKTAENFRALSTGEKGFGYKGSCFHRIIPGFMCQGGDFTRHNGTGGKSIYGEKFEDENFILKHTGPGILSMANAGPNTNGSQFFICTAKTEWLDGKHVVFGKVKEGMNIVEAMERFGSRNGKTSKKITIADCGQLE
Outline: (§1)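 A 10-point, 3-fold dilution series topping at 30 μM final was incubated 3 h at 25° C with the Ras/cyclophilin A/BRAF RBD mixture.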

K-Ras G13C = K-Ras G13C (Homo sapiens (Human), UniProt P01116+P62937, G13C); test: Ras-Raf (BRAF RBD) disruption / FRET / MOA assay, KRAS G13C; type: biochemical; details: KRAS G13C; Ras-Raf disruption/FRET/MOA assay; read-out: IC50* KRAS G13C FRET data
K-Ras G13C, sequence (P01116-2 other isoform, or with tags, fused parts or gaps G13C): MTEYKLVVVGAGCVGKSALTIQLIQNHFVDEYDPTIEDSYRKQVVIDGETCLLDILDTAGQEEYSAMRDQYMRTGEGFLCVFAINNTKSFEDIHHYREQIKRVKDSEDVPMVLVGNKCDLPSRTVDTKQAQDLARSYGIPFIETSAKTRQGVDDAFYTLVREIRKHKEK
K-Ras G13C, sequence (P62937 whole entry): as the sequence (P62937 whole entry) above
Outline: as §1

KRAS G12S = KRAS G12S (Homo sapiens (Human), UniProt P01116+P62937, G12S); test: Ras-Raf (BRAF RBD) disruption / FRET / MOA assay, KRAS G12S; type: biochemical; details: Ras-Raf disruption/FRET/MOA assay; class symbols; read-out: KRAS G12S FRET data IC50
KRAS G12S, sequence (P01116-2 other isoform, or with tags, fused parts or gaps G12S): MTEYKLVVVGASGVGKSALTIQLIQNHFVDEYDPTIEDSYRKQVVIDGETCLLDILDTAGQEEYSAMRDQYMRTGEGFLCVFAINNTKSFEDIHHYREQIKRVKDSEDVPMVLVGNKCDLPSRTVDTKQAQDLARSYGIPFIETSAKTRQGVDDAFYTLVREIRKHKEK
KRAS G12S, sequence (P62937 whole entry): as the sequence (P62937 whole entry) above
Outline: as §1

KRAS G12D = KRAS G12D (Homo sapiens (Human), UniProt P01116+P62937, G12D); test: Ras-Raf (BRAF RBD) disruption / FRET / MOA assay, KRAS G12D; type: biochemical; details: Ras-Raf disruption/FRET/MOA assay; class symbols; read-out: KRAS G12D FRET data IC50
KRAS G12D, sequence (P01116-2 other isoform, or with tags, fused parts or gaps G12D): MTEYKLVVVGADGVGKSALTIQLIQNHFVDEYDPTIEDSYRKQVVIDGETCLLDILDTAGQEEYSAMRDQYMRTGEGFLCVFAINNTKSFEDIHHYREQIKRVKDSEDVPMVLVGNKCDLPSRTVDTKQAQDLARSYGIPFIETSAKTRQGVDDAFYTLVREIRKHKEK
KRAS G12D, sequence (P62937 whole entry): as the sequence (P62937 whole entry) above
Outline: as §1

KRAS G12V = KRAS G12V (Homo sapiens (Human), UniProt P01116+P62937, G12V); test: Ras-Raf (BRAF RBD) disruption / FRET / MOA assay, KRAS G12V; type: biochemical; details: read-out: IC50* KRAS G12V FRET data
KRAS G12V, sequence (P01116-2 other isoform, or with tags, fused parts or gaps G12V): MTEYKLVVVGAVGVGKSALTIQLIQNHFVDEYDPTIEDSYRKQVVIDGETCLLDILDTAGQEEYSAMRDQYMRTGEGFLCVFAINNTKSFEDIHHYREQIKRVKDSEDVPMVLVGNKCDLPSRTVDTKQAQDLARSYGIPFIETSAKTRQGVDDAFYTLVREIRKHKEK
KRAS G12V, sequence (P62937 whole entry): as the sequence (P62937 whole entry) above
Outline: as §1

KRAS WT = KRAS WT (Homo sapiens (Human), UniProt P01116+P62937); test: Ras-Raf (BRAF RBD) disruption / FRET / MOA assay, KRAS WT; type: biochemical; details: read-out: IC50* KRAS WT FRET data
KRAS WT, sequence (P01116-2 other isoform, or with tags, fused parts or gaps): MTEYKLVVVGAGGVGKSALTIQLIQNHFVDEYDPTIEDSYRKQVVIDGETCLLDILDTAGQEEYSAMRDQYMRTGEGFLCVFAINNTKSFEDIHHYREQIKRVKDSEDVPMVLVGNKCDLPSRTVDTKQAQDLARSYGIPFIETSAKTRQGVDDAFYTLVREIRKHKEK
KRAS WT, sequence (P62937 whole entry): as the sequence (P62937 whole entry) above
Outline: as §1

KRAS G13D = KRAS G13D (Homo sapiens (Human), UniProt P01116+P62937, G13D); test: Ras-Raf (BRAF RBD) disruption / FRET / MOA assay, KRAS G13D; type: biochemical; details: read-out: IC50* KRAS G13D FRET data
KRAS G13D, sequence (P01116-2 other isoform, or with tags, fused parts or gaps G13D): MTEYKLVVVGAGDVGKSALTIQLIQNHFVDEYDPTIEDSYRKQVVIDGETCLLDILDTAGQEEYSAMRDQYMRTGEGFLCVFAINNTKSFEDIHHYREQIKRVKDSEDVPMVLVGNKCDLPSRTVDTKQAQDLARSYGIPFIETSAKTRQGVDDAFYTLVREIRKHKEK
KRAS G13D, sequence (P62937 whole entry): as the sequence (P62937 whole entry) above
Outline: as §1

NRAS G12C = NRAS G12C (Homo sapiens (Human), UniProt P01111+P62937, G12C); test: Ras-Raf (BRAF RBD) disruption / FRET / MOA assay, NRAS G12C; type: biochemical; details: read-out: IC50* NRAS G12C FRET data
NRAS G12C, sequence (P01111 whole entry G12C): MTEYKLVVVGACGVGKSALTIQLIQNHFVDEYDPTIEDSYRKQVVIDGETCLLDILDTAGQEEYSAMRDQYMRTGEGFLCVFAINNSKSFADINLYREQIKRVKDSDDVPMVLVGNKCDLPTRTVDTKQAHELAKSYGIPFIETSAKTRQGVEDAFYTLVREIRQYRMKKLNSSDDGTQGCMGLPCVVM
NRAS G12C, sequence (P62937 whole entry): as the sequence (P62937 whole entry) above
Outline: as §1

Row | SMILES | EC50 [1] | IC50 (NCI-H358 (K-Ras G12C)) | IC50 (K-Ras G12C) | IC50 (K-Ras G13C) | IC50 (KRAS G12S) | IC50 (KRAS G12D) | IC50 (KRAS G12V) | IC50 (KRAS WT) | IC50 (KRAS G13D) | IC50 (NRAS G12C)
1 | C=CC(=O)N1CC(OCC(C(=O)N[C@H]2Cc3nc(cs3)-c3ccc4c(c3)c(c(-c3cccnc3[C@H](C)OC)n4CC)CC(C)(C)COC(=O)[C@@H]3CCCN(N3)C2=O)C(C)C)C1 (mixture of isomers) [Example A473] | < 5000 nM | 10 to 100 nM | 100 to 1000 nM | 1000 to 10000 nM | 1000 to 10000 nM | > 10000 nM | 1000 to 10000 nM | 1000 to 10000 nM | 1000 to 10000 nM | 100 to 1000 nM
2 | CCn1c(-c2cccnc2[C@H](C)OC)c2c3cc(ccc31)-c1cccc(c1)C[C@H](NC(=O)[C@H](C(C)C)N(C)C(=O)[C@H]1CCN(C(=O)C#CC3CCO3)C1)C(=O)N1CCC[C@H](N1)C(=O)OCC(C)(C)C2 (mixture of isomers) [Example A509] | < 5000 nM | < 10 nM | < 10 nM | 100 to 1000 nM | 1000 to 10000 nM | > 10000 nM | 1000 to 10000 nM | 1000 to 10000 nM | 1000 to 10000 nM | < 10 nM
3 | CCn1c(-c2cccnc2[C@H](C)OC)c2c3cc(ccc31)-c1csc(n1)C[C@H](NC(=O)[C@H](C(C)C)N1CC[C@@]3(CCN(C(=O)C#CC(C)(C)N(C)C)C3)C1=O)C(=O)N1CCC[C@H](N1)C(=O)OCC(C)(C)C2 (single isomer, unassigned) [Example A425] | < 5000 nM | < 10 nM | < 10 nM | 100 to 1000 nM | 1000 to 10000 nM | > 10000 nM | > 10000 nM | > 10000 nM | > 10000 nM | 10 to 100 nM
4 | C=CC(=O)N1CC[C@H](C(=O)N(C)[C@H](C(=O)N[C@H]2Cc3cc(O)cc(c3)-c3ccc4c(c3)c(c(-c3ccc(CN(C)C)nc3COC)n4CC)CC(C)(C)COC(=O)[C@@H]3CCCN(N3)C2=O)C(C)C)C1 [Example A103] | < 5000 nM | 100 to 1000 nM | 10 to 100 nM | 1000 to 10000 nM | 100 to 1000 nM | 1000 to 10000 nM | 100 to 1000 nM | 1000 to 10000 nM | 1000 to 10000 nM | 10 to 100 nM
5 | C=CC(=O)N1CC[C@H](C(=O)N(C)[C@@H](C(=O)N[C@H]2Cc3cc(O)cc(c3)-c3ccc4c(c3)c(c(-c3cccc(CN(C)C)c3)n4CC)CC(C)(C)COC(=O)[C@@H]3CCCN(N3)C2=O)C(C)C)C1 [Example A106] | < 5000 nM | 100 to 1000 nM | 1000 to 10000 nM | > 10000 nM | > 10000 nM | > 10000 nM | > 10000 nM | > 10000 nM | > 10000 nM | 1000 to 10000 nM
6 | CCn1c(-c2cncnc2)c2c3cc(ncc31)-c1cc(O)cc(c1)C[C@H](NC(=O)[C@H](C(C)C)N(C)C(=O)[C@H]1CCN(C(=O)C#CCN(C)C)C1)C(=O)N1CCC[C@H](N1)C(=O)OCC(C)(C)C2 [Example A108] | < 5000 nM | < 10 nM | < 10 nM | 10 to 100 nM | 1000 to 10000 nM | 1000 to 10000 nM | 1000 to 10000 nM | 1000 to 10000 nM | 1000 to 10000 nM | < 10 nM
7 | C=CC(=O)N1CC[C@H](C(=O)N(C)[C@H](C(=O)N[C@H]2Cc3cc(O)cc(c3)-c3ccc4c(c3)c(c(-c3cc(CN(C)C)nn3C)n4CC)CC(C)(C)COC(=O)[C@@H]3CCCN(N3)C2=O)C(C)C)C1 [Example A109] | < 5000 nM | 100 to 1000 nM | 100 to 1000 nM | > 10000 nM | 1000 to 10000 nM | > 10000 nM | 1000 to 10000 nM | > 10000 nM | > 10000 nM | 100 to 1000 nM
8 | C=CC(=O)N(C)[C@H](C(=O)N[C@H]1Cc2cc(O)cc(c2)-c2ccc3c(c2)c(c(-c2cccnc2COC)n3CC)CC(C)(C)COC(=O)[C@@H]2CCCN(N2)C1=O)C(C)C [Example A110] | < 5000 nM | 100 to 1000 nM | 100 to 1000 nM | 100 to 1000 nM | 1000 to 10000 nM | 1000 to 10000 nM | 1000 to 10000 nM | 100 to 1000 nM | 1000 to 10000 nM | 1000 to 10000 nM
9 | C=CC(=O)N1CC[C@H](C(=O)N(C)[C@H](C(=O)N[C@H]2Cc3cc(O)cc(c3)-c3ccc4c(c3)c(c(-c3ccc(CN(C)C)c(COC)c3)n4CC)CC(C)(C)COC(=O)[C@@H]3CCCN(N3)C2=O)C(C)C)C1 [Example A111] | < 5000 nM | 10 to 100 nM | 100 to 1000 nM | 1000 to 10000 nM | 1000 to 10000 nM | > 10000 nM | 1000 to 10000 nM | 1000 to 10000 nM | 1000 to 10000 nM | 100 to 1000 nM
10 | C=CC(=O)N1CC[C@H](C(=O)N(C)[C@H](C(=O)N[C@H]2Cc3cc(O)cc(c3)-c3ccc4c(c3)c(c(-c3cnccc3[C@H](C)OC)n4CC)CC(C)(C)COC(=O)[C@@H]3CCCN(N3)C2=O)C(C)C)C1 [Example A112] | < 5000 nM | 10 to 100 nM | 100 to 1000 nM | 1000 to 10000 nM | 1000 to 10000 nM | > 10000 nM | 1000 to 10000 nM | 1000 to 10000 nM | 1000 to 10000 nM | 100 to 1000 nM
11 | CCn1c(-c2ccccc2CN(C)C)c2c3cc(ccc31)-c1cc(O)cc(c1)C[C@H](NC(=O)[C@H](C(C)C)N(C)C(=O)c1ncc(NC(=O)/C=C/CN(C)C)n1C)C(=O)N1CCC[C@H](N1)C(=O)OCC(C)(C)C2 [Example A116] | < 5000 nM | 100 to 1000 nM | < 10 nM | 10 to 100 nM | > 10000 nM | 1000 to 10000 nM | > 10000 nM | 1000 to 10000 nM | 1000 to 10000 nM | < 10 nM
12 | C=CC(=O)N(C)CCC(=O)N(C)[C@H](C(=O)N[C@H]1Cc2cc(O)cc(c2)-c2ccc3c(c2)c(c(-c2cccnc2COC)n3CC)CC(C)(C)COC(=O)[C@@H]2CCCN(N2)C1=O)C(C)C [Example A117] | < 5000 nM | 100 to 1000 nM | 100 to 1000 nM | 100 to 1000 nM | 1000 to 10000 nM | > 10000 nM | 1000 to 10000 nM | 1000 to 10000 nM | 1000 to 10000 nM | 100 to 1000 nM
13 | C=CC(=O)N1CC[C@H](C(=O)N(C)[C@H](C(=O)N[C@H]2Cc3csc(n3)-c3ccc4c(c3)c(c(-c3cccnc3COC)n4CC)CC(C)(C)COC(=O)[C@@H]3CCCN(N3)C2=O)C(C)C)C1 [Example A118, (2S)-N-[(7S,13S)-21-ethyl-20-[2-(methoxymethyl)pyridin-3-yl]-17,17-dimethyl-8,14-dioxo-15-oxa-3-thia-9,21,27,28-tetraazapentacyclo[17.5.2.1^2,^5.1^9,^13.0^22,^26]octacosa-1(25),2(28),4,19,22(26),23-hexaen-7-yl]-3-methyl-2-{N-methyl-1-[(3S)-1-(prop-2-enoyl)pyrrolidin-3-yl]formamido}butanamide] | < 5000 nM | 100 to 1000 nM | 100 to 1000 nM | > 10000 nM | > 10000 nM | > 10000 nM | > 10000 nM | > 10000 nM | > 10000 nM | 100 to 1000 nM
14 | CCn1c(-c2cnccc2[C@H](C)OC)c2c3cc(ccc31)-c1cc(O)cc(c1)C[C@H](NC(=O)[C@H](C(C)C)N(C)C(=O)[C@H]1CCN(C(=O)C#CCN(C)C)C1)C(=O)N1CCC[C@H](N1)C(=O)OCC(C)(C)C2 [Example A123] | < 5000 nM | < 10 nM | 10 to 100 nM | 10 to 100 nM | 100 to 1000 nM | 100 to 1000 nM | 100 to 1000 nM | 100 to 1000 nM | 100 to 1000 nM | < 10 nM
15 | C=CC(=O)N1CCN(C(=O)N(C)[C@H](C(=O)N[C@H]2Cc3cc(O)cc(c3)-c3ccc4c(c3)c(c(-c3ccccc3CCOC)n4CC)CC(C)(C)COC(=O)[C@@H]3CCCN(N3)C2=O)C(C)C)C[C@@H]1COC [Example A125] | < 5000 nM | > 1000 nM | 100 to 1000 nM | 100 to 1000 nM | 1000 to 10000 nM | > 10000 nM | 1000 to 10000 nM | 1000 to 10000 nM | 1000 to 10000 nM | 1000 to 10000 nM
16 | CCn1c(-c2ccccc2CN(C)C)c2c3cc(ccc31)-c1cc(O)cc(c1)C[C@H](NC(=O)[C@@H](C(C)C)N(C)C(=O)c1ncc(NC(=O)/C=C/CN(C)C)n1C)C(=O)N1CCC[C@H](N1)C(=O)OCC(C)(C)C2 [Example A126] | < 5000 nM | > 1000 nM | 10 to 100 nM | 100 to 1000 nM | > 10000 nM | > 10000 nM | > 10000 nM | > 10000 nM | > 10000 nM | 10 to 100 nM
